Drawing on ChEMBL document CHEMBL4190382, “Targeting lysine specific demethylase 4A (KDM4A) tandem TUDOR domain - A fragment based approach” (Bioorg Med Chem Lett, 2018), this text covers Activity, inhibition and EC50 for one compound.

The test system of assay [1] is T1, Lysine-specific demethylase 4A (Homo sapiens), O75164 [W967A].
T1 sequence (whole entry): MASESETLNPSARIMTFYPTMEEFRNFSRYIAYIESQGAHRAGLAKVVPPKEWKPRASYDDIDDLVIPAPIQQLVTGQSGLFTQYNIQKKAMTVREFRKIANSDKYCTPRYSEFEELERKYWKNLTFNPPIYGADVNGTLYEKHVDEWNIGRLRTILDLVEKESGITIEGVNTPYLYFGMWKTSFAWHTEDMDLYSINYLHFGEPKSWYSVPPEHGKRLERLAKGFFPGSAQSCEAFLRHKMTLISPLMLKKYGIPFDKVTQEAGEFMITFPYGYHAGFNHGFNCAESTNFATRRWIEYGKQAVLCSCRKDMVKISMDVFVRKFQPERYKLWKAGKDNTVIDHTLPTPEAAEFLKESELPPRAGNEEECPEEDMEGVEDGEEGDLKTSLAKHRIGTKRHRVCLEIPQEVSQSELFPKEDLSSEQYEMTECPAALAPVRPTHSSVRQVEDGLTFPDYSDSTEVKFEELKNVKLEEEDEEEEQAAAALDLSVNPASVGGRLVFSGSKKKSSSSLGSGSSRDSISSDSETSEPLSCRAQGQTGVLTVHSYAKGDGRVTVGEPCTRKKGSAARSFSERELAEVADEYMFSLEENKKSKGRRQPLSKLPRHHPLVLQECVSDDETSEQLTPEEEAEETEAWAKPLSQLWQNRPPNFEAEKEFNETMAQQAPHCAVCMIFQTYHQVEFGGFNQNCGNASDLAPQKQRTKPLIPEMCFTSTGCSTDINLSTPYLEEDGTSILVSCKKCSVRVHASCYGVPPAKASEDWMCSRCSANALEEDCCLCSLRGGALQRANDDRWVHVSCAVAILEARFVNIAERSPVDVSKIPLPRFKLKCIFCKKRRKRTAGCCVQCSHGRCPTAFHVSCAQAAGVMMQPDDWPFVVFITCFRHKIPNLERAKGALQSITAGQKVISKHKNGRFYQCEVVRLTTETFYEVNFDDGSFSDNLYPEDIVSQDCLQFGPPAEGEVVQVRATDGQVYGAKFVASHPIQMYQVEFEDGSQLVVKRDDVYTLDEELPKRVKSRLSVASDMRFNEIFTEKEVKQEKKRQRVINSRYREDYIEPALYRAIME
Kind of assay: Binding affinity to thrombin cleavable N-terminal 6His tagged and 13C-IVLM labeled human KDM4A tandem TUDOR domain (897 to 1011 residues) W967A mutant expressed in Escherichia coli BL21(DE3)-T1R by ITC method. A general note: Isothermal titration calorimetry measures the heat released or taken up as one component is titrated into another.

Assay [2] deals with T2, Lysine-specific demethylase 4A (Homo sapiens) (UniProt O75164).
T2 sequence (whole entry): T1 sequence (whole entry) with A967W
Kind of assay: (§1) Inhibition of NanoLuc-KDM4A-TUDOR domain (unknown origin) binding to Histone H3.3-HaloTag expressed in 293T cells incubated for 18 hrs by Nano-BRET based target engagement assay. It is filed as cell-based.

Assay [3] deals with T3, Lysine-specific demethylase 4A (Homo sapiens, UniProt O75164).
T3 sequence (O75164 whole entry): T1 sequence (whole entry) with A967W
Described as §1. It is filed as cell-based.

Molecules are shown by their SMILES. Changes are numbered by the printed parent chain. The source made the active and inactive calls. No cut-off for these calls is given here.

For `CN(C)C[C@H]1C2CCC(c3ccccc3)(C2)[C@H]1O` (stereo partly drawn), the outcome in assay [1] was inactive. The inhibition result in assay [2] was “Dose-dependent effect”. For the same compound, in assay [3], it took 105 µM to reach a half-maximal effect (EC50).
